# Data from patent US11407723B2, “Selective histone deacetylase inhibitors for the treatment of human disease” (Shuttle Pharmaceuticals, Inc., priority 2018, dated 2022).
# Legend:
# Assay type in all cases: biochemical
# HDAC3 protein = HDAC3 protein (Homo sapiens, UniProt O15379); assay: in vitro HDAC enzyme inhibition assay, HDAC3 (selectivity of HDAC6 over HDAC3); settings: HDAC6 vs HDAC3
# Method: (§1) The compounds were tested against Pan HDAC, HDAC1, HDAC3, and HDAC6 proteins in vitro.
# HDAC1 protein = HDAC1 protein (Homo sapiens, UniProt Q13547); assay: in vitro HDAC enzyme inhibition assay, HDAC1 (selectivity of HDAC6 over HDAC1); settings: HDAC6 vs HDAC1
# Method: as §1
# HDAC6 protein = target: T1, HDAC6 protein (Homo sapiens, UniProt Q9UBN7); assay: in vitro HDAC enzyme inhibition assay, HDAC6; settings: for inhibitory activity against HDAC6 protein: FIGS. 1 and 2A-2C
# T1 sequence (Q9UBN7 1-1215): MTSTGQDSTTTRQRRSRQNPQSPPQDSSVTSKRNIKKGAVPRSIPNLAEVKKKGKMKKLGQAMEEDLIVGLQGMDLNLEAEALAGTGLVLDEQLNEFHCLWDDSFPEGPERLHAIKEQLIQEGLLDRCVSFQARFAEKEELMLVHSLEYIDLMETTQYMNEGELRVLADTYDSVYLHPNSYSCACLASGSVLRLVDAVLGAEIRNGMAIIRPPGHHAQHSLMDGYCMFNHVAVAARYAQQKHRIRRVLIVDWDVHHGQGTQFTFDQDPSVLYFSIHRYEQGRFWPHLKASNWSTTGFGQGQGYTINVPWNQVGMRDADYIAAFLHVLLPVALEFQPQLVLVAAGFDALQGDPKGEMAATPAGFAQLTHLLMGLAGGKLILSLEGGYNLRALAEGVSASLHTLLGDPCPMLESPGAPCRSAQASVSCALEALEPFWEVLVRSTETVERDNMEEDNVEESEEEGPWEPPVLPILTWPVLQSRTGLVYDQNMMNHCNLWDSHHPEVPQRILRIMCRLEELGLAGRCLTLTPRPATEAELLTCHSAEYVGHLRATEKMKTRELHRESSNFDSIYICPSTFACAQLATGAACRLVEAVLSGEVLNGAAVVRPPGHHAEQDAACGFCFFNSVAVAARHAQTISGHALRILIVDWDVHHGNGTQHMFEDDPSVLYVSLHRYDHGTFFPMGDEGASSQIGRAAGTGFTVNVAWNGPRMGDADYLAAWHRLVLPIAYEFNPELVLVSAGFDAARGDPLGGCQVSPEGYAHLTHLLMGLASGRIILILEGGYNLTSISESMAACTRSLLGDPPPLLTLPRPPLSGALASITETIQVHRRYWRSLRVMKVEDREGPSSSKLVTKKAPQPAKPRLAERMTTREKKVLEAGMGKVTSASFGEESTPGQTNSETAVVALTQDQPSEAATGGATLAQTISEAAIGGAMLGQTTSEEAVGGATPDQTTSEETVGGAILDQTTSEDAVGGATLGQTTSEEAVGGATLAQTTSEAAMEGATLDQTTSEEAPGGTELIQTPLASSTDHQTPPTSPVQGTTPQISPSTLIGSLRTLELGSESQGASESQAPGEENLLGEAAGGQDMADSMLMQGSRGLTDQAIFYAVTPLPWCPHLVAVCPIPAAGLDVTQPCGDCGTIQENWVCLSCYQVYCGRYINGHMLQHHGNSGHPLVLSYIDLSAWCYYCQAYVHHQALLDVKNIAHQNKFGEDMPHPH
# Method: as §1
# Sequence of HDAC1 protein (Q13547 whole entry): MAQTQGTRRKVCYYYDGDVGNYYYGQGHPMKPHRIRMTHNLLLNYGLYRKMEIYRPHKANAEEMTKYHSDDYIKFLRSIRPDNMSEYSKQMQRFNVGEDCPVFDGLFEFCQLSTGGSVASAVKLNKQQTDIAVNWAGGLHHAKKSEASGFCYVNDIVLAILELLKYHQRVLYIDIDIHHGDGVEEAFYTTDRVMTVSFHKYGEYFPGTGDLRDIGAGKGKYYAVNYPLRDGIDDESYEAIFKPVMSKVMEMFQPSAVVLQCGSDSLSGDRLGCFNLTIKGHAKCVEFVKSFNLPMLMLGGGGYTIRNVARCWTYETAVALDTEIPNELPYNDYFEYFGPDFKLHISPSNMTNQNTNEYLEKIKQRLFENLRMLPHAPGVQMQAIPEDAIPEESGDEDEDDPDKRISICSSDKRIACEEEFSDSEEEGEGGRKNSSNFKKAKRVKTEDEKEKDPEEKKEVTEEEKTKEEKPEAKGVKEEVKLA
# Sequence of HDAC3 protein (O15379 whole entry): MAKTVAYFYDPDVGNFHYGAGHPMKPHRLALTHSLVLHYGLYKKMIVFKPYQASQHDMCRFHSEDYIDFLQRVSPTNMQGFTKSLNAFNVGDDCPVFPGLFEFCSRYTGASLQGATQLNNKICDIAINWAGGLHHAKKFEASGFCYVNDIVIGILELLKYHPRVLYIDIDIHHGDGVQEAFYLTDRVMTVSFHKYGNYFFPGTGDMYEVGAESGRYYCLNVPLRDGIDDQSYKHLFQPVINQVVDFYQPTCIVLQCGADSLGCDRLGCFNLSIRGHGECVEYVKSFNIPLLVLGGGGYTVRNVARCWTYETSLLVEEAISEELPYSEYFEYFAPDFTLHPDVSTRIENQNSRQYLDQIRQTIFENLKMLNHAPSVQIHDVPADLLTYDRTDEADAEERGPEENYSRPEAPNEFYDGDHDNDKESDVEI
# Sequence of HDAC3 protein (Q9Y618 395-489 partner limits assumed): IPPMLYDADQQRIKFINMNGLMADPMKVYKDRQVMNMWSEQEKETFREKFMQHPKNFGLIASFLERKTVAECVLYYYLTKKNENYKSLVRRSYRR
smiles,measurement,setting,value
"Cc1nnc(NS(=O)(=O)c2ccc(NC(=O)CCCCCCC(=O)NO)cc2)s1 [SP-2-213, N^1-hydroxy-N^8-(4-(N-(5-methyl-1,3,4-thiadiazol-2-yl)sulfamoyl)phenyl) octanediamide]",times more selective for HDAC6 as compared to HDAC3,HDAC3 protein,about 12 times
same,times more selective for HDAC6 as compared to HDAC1,HDAC1 protein,about 4 times
same,inhibitory activity against HDAC6 protein,HDAC6 protein,inhibitors of HDAC6
same,"selectivity for HDAC6 as compared to Pan-HDACs, HDAC1 and HDAC3 (in words)",HDAC6 protein,selective inhibitors of HDAC6
"Cc1cc(CNCCCCCC(=O)NO)ccc1OCc1cccc(-c2ccccc2)c1C [SP-2-225, N-hydroxy-6-((3-methyl-4-((2-methyl-[1,1′-biphenyl]-3-yl)methoxy)benzyl)amino)hexanamide]",times more selective for HDAC6 as compared to HDAC3,HDAC3 protein,about 22 times
same,times more selective for HDAC6 as compared to HDAC1,HDAC1 protein,about 65 times
same,inhibitory activity against HDAC6 protein,HDAC6 protein,inhibitors of HDAC6
same,"selectivity for HDAC6 as compared to Pan-HDACs, HDAC1 and HDAC3 (in words)",HDAC6 protein,selective inhibitors of HDAC6
